For assay [1], the target named is T1, human KCNMA1 (hum KCNMA1) (Homo sapiens, UniProt Q12791).
T1 construct: KCNMA1 variant 2/isoform b (NP_002238), expressed in HEK293 cells
As to the kind of experiment: whole cell patch clamp, transfected HEK293 cells; transient facilitation then inhibition at […]. Format: cell-based. (In general: In patch-clamp work, channel activity is measured electrically.)

The target of the next assay is T2, Drosophila Slo (Dm Slo) (Drosophila melanogaster, UniProt Q03720).
T2 construct: alpha subunit, stably expressed in CHO cells
T2 sequence (Q03720 whole entry): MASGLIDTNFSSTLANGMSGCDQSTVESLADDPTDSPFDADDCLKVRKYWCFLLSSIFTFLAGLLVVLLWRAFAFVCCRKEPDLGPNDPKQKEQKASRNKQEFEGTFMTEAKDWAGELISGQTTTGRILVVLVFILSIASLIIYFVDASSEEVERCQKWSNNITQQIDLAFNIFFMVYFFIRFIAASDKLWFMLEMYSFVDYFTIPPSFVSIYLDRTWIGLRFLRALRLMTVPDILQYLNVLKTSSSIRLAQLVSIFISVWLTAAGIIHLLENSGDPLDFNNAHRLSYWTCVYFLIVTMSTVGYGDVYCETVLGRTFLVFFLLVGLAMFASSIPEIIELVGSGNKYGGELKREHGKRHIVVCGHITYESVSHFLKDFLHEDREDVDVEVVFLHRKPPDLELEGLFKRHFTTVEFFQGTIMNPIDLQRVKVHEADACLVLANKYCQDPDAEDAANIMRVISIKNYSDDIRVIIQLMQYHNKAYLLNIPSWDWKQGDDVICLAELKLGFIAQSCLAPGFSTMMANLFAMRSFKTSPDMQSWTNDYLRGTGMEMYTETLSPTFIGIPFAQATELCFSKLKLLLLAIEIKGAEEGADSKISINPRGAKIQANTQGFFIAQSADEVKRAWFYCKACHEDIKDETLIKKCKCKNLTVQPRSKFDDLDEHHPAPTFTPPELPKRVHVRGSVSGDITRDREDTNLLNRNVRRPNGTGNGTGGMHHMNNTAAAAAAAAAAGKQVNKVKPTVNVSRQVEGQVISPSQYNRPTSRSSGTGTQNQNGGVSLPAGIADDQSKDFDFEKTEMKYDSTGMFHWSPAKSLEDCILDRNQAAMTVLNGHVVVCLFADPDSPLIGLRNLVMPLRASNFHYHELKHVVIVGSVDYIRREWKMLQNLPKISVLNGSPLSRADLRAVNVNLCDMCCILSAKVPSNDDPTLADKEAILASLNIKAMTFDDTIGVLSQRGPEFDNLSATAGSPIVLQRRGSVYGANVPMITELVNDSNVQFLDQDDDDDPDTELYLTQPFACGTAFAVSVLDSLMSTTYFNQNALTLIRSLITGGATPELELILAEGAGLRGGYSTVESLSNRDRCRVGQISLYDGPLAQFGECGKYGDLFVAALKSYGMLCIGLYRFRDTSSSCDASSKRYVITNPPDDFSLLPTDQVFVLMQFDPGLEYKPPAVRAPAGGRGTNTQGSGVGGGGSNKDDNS
The assay can be described thus: whole cell voltage clamp, CHO cells stably expressing Dm Slo, dose-response. In kind it is cell-based.

The values that follow come from article PMC4593646, “The Cyclooctadepsipeptide Anthelmintic Emodepside Differentially Modulates Nematode, Insect and Human Calcium-Activated Potassium (SLO) Channel Alpha Subunits” (PLoS Neglected Tropical Diseases, 2015).

T1 sequence (Q12791 whole entry, canonical isoform): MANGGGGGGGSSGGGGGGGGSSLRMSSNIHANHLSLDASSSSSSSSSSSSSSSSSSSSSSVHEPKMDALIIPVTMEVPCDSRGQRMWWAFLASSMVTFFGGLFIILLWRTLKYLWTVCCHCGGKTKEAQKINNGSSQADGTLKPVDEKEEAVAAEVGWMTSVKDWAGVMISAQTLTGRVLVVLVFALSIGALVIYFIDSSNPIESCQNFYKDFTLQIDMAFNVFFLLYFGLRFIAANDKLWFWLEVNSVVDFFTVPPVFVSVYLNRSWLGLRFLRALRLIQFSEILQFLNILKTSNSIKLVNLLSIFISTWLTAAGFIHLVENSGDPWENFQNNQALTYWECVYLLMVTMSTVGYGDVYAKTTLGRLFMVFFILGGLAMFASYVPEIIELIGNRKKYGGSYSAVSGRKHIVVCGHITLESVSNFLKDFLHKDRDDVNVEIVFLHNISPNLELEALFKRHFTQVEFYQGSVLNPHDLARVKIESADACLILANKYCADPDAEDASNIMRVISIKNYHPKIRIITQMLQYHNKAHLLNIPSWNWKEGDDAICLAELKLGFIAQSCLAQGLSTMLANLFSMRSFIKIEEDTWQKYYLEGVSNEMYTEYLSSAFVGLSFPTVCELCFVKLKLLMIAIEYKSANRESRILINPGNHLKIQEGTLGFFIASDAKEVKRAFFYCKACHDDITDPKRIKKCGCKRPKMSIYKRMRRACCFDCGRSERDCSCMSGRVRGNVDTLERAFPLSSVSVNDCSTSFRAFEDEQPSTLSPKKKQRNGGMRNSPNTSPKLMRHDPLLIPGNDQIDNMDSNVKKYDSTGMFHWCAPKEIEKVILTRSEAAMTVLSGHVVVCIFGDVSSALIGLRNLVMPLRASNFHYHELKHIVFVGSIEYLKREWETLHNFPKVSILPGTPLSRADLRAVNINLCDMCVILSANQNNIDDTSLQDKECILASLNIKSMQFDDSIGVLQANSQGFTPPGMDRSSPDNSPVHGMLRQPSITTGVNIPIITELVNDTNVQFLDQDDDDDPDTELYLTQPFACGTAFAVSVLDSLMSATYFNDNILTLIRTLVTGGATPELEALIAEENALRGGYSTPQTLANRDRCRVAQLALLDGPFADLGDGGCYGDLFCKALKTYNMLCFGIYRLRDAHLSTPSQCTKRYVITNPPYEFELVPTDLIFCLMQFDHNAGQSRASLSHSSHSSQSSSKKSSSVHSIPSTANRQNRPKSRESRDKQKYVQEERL

Turning to `CC(C)C[C@H]1C(=O)O[C@H](Cc2ccc(N3CCOCC3)cc2)C(=O)N(C)[C@@H](CC(C)C)C(=O)O[C@H](C)C(=O)N(C)[C@@H](CC(C)C)C(=O)O[C@H](Cc2ccc(N3CCOCC3)cc2)C(=O)N(C)[C@@H](CC(C)C)C(=O)O[C@H](C)C(=O)N1C` [emodepside], the “whole cell patch clamp, transfected HEK293 cells; transient facilitation then in” value in assay [1] was “In HEK293 cells expressing KCNMA1 emodepside elicited a biphasic, concentration-dependent effect on current amplitude”.
In general, IC50 refers to the concentration at which inhibition is half-maximal. `C=C(C)[C@H]1O[C@H]2CC[C@@]3(C)[C@@](O)(CC[C@H]4[C@@H]5OC(C)(C)[C@H]6C[C@@H]7C(=C)Cc8c(Cl)cc9[nH]c(c5c9c8[C@@]76O)[C@@]43C)[C@@]23O[C@H]3[C@H]1O` [penitrem A] displayed an IC50 at Drosophila Slo (Dm Slo) of 0.5 nM.
Still for that read-out and setting: under `COc1ccc2c3c4n(c2c1)[C@H](C=C(C)C)OOC(C)(C)C[C@@H]4N1C(=O)[C@@H]2CCCN2C(=O)[C@]1(O)[C@H]3O` [verruculogen] stands 6.2 nM.
